Consider one compound from US20230271938A1, “BENZIMIDAZOLES FOR USE IN THE TREATMENT OF CANCER AND INFLAMMATORY DISEASES” (Capella Therapeutics, Inc., priority 2015, published 2023).

Assay [1] deals with H1975 human NSCLC adenocarcinoma cells (drug-resistant mutant ERBB1, T790M in-cis with L858R). Nature of the assay: Cell proliferation assay, H1975. Format: cell-based. As for the experimental part: (§1) The biological activity of a test compound was determined using cell proliferation assays. The activity against wild-type ERBB 1 was determined using A431 human epidermoid carcinoma cells (ATCC) and human epidermal keratinocytes, neonatal, or HEKn cells (ATCC).
(§2) A431 cells were grown in DMEM (Invitrogen) supplemented with 10% FBS (Lonza), 1% penicillin-streptomycin, and 2 mM glutamine (Invitrogen). HEKn cells were grown in EPILIFE® (Invitrogen) supplemented with HKGS (Invitrogen). HCC827 and H1975 were cultured in RPMI1640 supplemented with 10% FBS (Lonza), 1% penicillin-streptomycin, and 2 mM glutamine (Invitrogen). Cells were maintained and propagated at 37° C. and 5% CO2 in a humidified cell culture incubator. Aliquots of cells from early passages were preserved for liquid nitrogen storage. Frozen vials of cells were thawed at 37° C. water bath. Cells were spun to remove freezing medium. The newly revived frozen cells were adapted in culture for 10 days before used for compound testing. Cells used in the assay were less than 20 subculture passages or 3 months in culture.
(§3) The test compounds were dissolved in dimethylsulfoxide (DMSO) and stored at -20° C. before testing. […] The cells were placed in a culture incubator overnight. Next day, test compounds in DMSO were added to the cells and placed back in the culture incubator for 72 hrs. In the meantime, the cell numbers at time zero of the compound treatment (T0) was measured by ENERCOUNT® (Codex BioSolutions). At the end of the compound treatment, the cell numbers were again measured by EnerCount as T72 values. The untreated controls (Ctrl) were cell numbers recorded from the 0.1% DMSO treatment. The percent growth inhibition by the test compound was calculated by the formula: (1- (T72-T0)/(Ctrl-T0)) x 100.
(§4) The results are summarized in Tables 1 and 2, wherein A represents a value no greater than 500 nM, B represents a value greater than 500 nM but no greater than 1 µM, C represents a value greater than 1 µM but no greater than 5 µM, and D represents a value greater than 5 µM; and wherein A′ represents a ratio of greater than 10, B′ represents a ratio of no greater than 10 but no less than 5, C′ represents a ratio of no greater than 5 but no less than 2, and D′ represents a ratio of no greater than 2.

A further assay concerns the target PIK3C-D (Homo sapiens, UniProt O00329). Nature of the assay: Inhibition of PIK3C-D kinase. It counts as biochemical. An excerpt: (§5) The Z′-LYTE® biochemical assay is a fluorescence-based, coupled-enzyme assay based on the differential sensitivity of phosphorylated and non-phosphorylated peptides to proteolytic cleavage. A peptide substrate for a kinase is labeled with two fluorophores, one at each end, to form a FRET pair.
(§6) In the primary reaction, the kinase transfers the gamma-phosphate of ATP to a single tyrosine, serine, or threonine residue in the synthetic FRET-peptide substrate. In the secondary reaction, a site-specific protease recognizes and cleaves non-phosphorylated FRET-peptides. Cleavage disrupts FRET between the donor and acceptor fluorophores on the FRET-peptide, whereas uncleaved, phosphorylated FRET-peptides maintain FRET. An inhibitory activity of a compound is thus determined from its effect on the cleavage of the synthetic FRET-peptide substrate.
Binding of an ALEXA FLUOR® conjugate or “tracer” to a kinase is detected by addition of a Eu-labeled anti-tag antibody. […] An inhibitory activity of a compound is thus determined from the extent of the FRET signal loss. Inhibition of ITK and TEC kinases by a test compound is determined in the presence of 1% DMSO.
(§7) Inhibition of BMX, BTK, PIK3C-D, ITK, TEC, and TXK kinases by compound A2 was measured using one of the assays described in Examples 2A and 3A.

Assay [2] has as its system A431 human epidermoid carcinoma cells (wild-type ERBB1). Nature of the assay: Cell proliferation assay, A431. Format: cell-based. The following applies: A-431, 72 hrs. As for the experimental part:
as §1, §2, §3, §4

For the next assay, the target named is T1, BMX (Homo sapiens, UniProt P51813).
T1 sequence (P51813 1-675): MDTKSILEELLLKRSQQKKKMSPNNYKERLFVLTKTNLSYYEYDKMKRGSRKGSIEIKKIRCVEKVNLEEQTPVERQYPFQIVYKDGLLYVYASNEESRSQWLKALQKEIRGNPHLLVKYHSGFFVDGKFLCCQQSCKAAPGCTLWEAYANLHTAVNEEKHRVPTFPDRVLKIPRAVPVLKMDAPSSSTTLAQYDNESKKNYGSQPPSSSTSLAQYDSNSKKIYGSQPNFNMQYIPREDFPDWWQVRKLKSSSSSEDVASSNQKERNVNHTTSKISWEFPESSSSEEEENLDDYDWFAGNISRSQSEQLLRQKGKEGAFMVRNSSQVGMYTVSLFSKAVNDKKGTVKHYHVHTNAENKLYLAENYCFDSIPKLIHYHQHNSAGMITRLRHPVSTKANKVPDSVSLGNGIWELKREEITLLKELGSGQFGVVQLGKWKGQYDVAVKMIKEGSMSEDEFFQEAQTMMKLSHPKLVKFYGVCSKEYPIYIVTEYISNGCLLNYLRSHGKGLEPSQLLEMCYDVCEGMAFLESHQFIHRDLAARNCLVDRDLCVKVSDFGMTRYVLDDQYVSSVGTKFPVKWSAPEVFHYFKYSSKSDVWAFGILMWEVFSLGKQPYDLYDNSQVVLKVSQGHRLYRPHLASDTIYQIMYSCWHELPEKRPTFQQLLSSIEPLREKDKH
Nature of the assay: Inhibition of BMX kinase. As to conditions: 1% DMSO. It counts as biochemical.
Text: as §5, §6
Inhibition of BMX, BTK, ITK, and TXK kinases by a test compound is determined in 50 mM HEPES, pH 7.5, 0.01% BRIJ-35, 10 mM MgCl2, and 1 mM EGTA in the presence of 1% DMSO by volume.
as §7

The test system of assay [3] is human epidermal keratinocytes, neonatal, or HEKn cells (wild-type ERBB1). Nature of the assay: Cell proliferation assay, HEKn. As to conditions: Keratinocyte, 72 hrs. It counts as cell-based. As to the method: as §1, §2, §3, §4
Assay [4] has as its system HCC827 human NSCLC adenocarcinoma cells (mutant ERBB1, deletion of E746-A759 in exon 19). Nature of the assay: Cell proliferation assay, HCC827. It counts as cell-based. As for the experimental part: as §1, §2, §3, §4

PIK3C-D, sequence (O00329 whole entry): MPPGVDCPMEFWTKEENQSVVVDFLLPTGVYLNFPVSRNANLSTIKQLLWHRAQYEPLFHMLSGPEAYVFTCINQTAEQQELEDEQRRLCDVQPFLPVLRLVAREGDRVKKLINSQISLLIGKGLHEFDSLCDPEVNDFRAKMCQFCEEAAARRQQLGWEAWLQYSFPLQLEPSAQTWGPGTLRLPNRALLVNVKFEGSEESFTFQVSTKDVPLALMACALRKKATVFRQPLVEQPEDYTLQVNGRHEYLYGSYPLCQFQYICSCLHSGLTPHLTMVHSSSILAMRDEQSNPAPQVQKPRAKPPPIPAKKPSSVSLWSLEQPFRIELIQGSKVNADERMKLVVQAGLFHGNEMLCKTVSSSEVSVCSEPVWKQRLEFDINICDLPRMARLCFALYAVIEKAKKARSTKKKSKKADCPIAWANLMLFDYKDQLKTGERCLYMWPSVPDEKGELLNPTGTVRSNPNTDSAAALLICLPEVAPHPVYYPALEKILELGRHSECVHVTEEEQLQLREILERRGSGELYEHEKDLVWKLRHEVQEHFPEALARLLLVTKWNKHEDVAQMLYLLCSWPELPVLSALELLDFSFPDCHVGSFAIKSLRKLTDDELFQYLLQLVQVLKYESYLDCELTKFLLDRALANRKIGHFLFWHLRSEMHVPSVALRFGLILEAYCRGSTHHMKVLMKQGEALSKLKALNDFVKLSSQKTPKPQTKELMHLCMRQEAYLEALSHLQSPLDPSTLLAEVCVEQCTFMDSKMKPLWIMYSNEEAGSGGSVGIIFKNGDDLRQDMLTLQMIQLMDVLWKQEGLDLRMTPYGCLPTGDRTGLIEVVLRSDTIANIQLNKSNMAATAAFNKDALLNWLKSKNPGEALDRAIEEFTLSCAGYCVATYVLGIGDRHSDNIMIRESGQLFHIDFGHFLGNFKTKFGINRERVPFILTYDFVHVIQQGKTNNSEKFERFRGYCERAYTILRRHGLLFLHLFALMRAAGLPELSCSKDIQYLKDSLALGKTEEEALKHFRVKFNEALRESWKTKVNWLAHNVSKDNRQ
PIK3C-D, sequence (P27986 whole entry partner): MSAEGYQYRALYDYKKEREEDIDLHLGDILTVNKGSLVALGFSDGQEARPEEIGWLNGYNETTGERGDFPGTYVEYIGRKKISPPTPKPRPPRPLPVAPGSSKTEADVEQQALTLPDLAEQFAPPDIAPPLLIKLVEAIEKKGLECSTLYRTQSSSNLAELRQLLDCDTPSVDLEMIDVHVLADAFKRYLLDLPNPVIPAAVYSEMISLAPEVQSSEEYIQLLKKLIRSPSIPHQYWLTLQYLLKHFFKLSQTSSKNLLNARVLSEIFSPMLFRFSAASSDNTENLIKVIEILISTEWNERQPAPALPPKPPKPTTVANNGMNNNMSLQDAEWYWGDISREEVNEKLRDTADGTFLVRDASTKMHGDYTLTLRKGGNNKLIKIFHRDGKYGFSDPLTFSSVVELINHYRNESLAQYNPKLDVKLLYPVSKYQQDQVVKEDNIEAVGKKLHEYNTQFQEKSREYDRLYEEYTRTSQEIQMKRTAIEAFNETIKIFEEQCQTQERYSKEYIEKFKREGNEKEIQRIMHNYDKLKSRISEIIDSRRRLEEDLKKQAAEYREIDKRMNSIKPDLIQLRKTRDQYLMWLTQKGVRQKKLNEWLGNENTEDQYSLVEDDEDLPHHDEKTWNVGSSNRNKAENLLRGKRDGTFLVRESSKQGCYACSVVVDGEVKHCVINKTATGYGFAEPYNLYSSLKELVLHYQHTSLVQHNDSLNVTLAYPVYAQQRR

In the case of `C=CC(=O)N1CCCC[C@@H](n2c(NC(=O)c3ccnc(C)c3)nc3cccc(OC4CCN(C(C)=O)CC4)c32)C1` [Compound A2, (R)-N-(7-((1-acetylpiperidin-4-yl)oxy)-1-(1-acryloylazepan-3-yl)-1H-benzo[d]imidazol-2-yl)-2-methylisonicotinamide], the “Ratio (Wild-type ERBB1/Mutant ERBB1) A431/H1975” value in assay [1] (GI50 ratio A431/H1975) is listed as “B′ (B′ represents a ratio of no greater than 10 but no less than 5)”. Besides, the “Ratio (Wild-type ERBB1/Mutant ERBB1) HEKn/H1975” value in assay [1] (GI50 ratio HEKn/H1975) is on record as “A′ (A′ represents a ratio of greater than 10)”. For the same compound, the GI50 in assay [1] (Homo sapiens, NCI-H1975, H1975 cells, 72 hrs) is less than 0.5 µM; in assay [2] it was 0.5 to 1 µM; in assay [3] it was more than 5 µM; in assay [4] (Homo sapiens, HCC827 cells, 72 hrs), less than 0.5 µM. Moreover, the IC50 on PIK3C-D and at BMX was not above 0.01 µM each time. The Inhibition entry on PIK3C-D and on BMX was “A (A represents a value no greater than 10 nM or no less than 90% inhibition)” in each case. Moreover, in assay [4] (GI50 ratio A431/HCC827), the “Ratio (Wild-type ERBB1/Mutant ERBB1) A431/HCC827” value is “A′ (A′ represents a ratio of greater than 10)”. Moreover, the “Ratio (Wild-type ERBB1/Mutant ERBB1) HEKn/HCC827” value in assay [4] (GI50 ratio HEKn/HCC827) was “A′ (A′ represents a ratio of greater than 10)”.

What is called GI50 is the concentration at which growth is held to half of that of the control. For orientation: IC50 means the concentration that gives 50% inhibition. Lower therefore signals greater potency.
